In article PMC9161449, “FUT8-Directed Core Fucosylation of N-glycans Is Regulated by the Glycan Structure and Protein Environment” (ACS Catalysis, 2021):
Several values for one entry are separate records, joined by “and”; a condition that tells them apart may be missing. Equal values may be shown once. Values belong to the molecule of their own block, whether it stands above or below them.

Key:
human FUT8 [1] = biological target: T1, human FUT8 (Homo sapiens, UniProt Q9BYC5); assay: Isothermal titration calorimetry (ITC) of ligands binding to FUT8
T1 construct: made in house
T1 sequence (Q9BYC5 1-575): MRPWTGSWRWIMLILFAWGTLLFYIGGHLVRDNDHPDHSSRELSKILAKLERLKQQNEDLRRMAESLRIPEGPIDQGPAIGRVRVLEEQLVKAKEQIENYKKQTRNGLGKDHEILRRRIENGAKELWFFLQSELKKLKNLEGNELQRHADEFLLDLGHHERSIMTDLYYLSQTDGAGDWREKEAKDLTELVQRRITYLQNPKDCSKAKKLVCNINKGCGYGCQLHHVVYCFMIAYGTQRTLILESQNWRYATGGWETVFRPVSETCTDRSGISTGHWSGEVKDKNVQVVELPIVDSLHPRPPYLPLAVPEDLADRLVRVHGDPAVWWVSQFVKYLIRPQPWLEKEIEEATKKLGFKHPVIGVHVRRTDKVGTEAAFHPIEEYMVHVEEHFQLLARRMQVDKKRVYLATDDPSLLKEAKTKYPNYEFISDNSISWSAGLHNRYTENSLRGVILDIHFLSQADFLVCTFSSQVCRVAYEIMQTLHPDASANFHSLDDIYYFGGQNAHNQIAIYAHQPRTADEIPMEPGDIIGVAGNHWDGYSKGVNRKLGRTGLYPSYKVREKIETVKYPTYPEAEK
Procedure: (§1) The human FUT8 was purified as previously described.[12]
ITC was performed to characterize the interaction of FUT8 with GDP, G0, the G0-peptide, the M3N2-peptide, M3N2, and M5N2-Asn. All experiments were carried out in an Auto-iTC200 (Microcal, GE Healthcare) at 25 °C. The concentration of FUT8 was 70 μM and the ligand concentration ranged from 400 μM to 1 mM. The experiments used 25 mM Tris (pH 7.5) and 150 mM NaCl for the characterization of the binding of FUT8 against GDP and G0. To characterize the binding of FUT8 against all N-glycans in the presence of an excess of GDP, the conditions were 25 mM Tris (pH 7.5), 150 mM NaCl, and 1 mM GDP. The experiments were performed in duplicate. Data integration, correction, and analysis were carried out in Origin 7 (Microcal). The data were fitted to a one-site equilibrium-binding model.

human FUT8 [2] = biological target: T1, human FUT8; assay: FUT8 enzyme kinetics, GDP-Glo luminescence assay; format: biochemical
Procedure: as §1
Enzyme kinetics for FUT8 were determined using GDP-Glo luminescence assays (Promega). Reactions contained 100 nM FUT8 in 25 mM Tris (pH 7.5), 150 mM NaCl, and 200 μM GDP-fucose in the presence of the ligands. The concentrations of G0, the G0-peptide, the M3N2-peptide, M3N2, and M5N2-Asn ranged from 5 μM to 1 mM. To determine the kinetic parameters for GDP-fucose, we used 100 nM FUT8 in 25 mM Tris (pH 7.5), 150 mM NaCl, and variable concentrations of GDP-fucose (from 5 to 500 μM) in the presence of 500 μM of G0. Reactions were incubated for 30 min at 37 °C and stopped using 5 μL of GDP-detection reagent at a 1:1 ratio in white and opaque 384-well plates. Then, the plates were incubated in the dark for 1 h at room temperature. Subsequently, the luminance values were obtained by using a Synergy HT plate reader (Biotek).
To estimate the amount of GDP produced in the glycosyltransferase reaction, we created a GDP standard curve. The values were corrected for enzyme hydrolysis in the absence of the substrate acceptor and fitted to a nonlinear Michaelis–Menten equation in GraphPad Prism 6 software from which the Km, kcat, and Vmax along with their standard deviations were obtained. All the experiments were performed in duplicate.

human FUT8 [3] = biological target: T1, human FUT8; assay: FUT8 substrate specificity by MALDI-TOF MS; format: biochemical; conditions: 18 μM FUT8, 18 h at RT (long incubation)
Procedure: Solutions of the different N-glycan structures (1 nmol) were incubated with a FUT8 enzyme (18 μM) and GDP-fucose (2 nmol) in 25 mM Tris and 150 mM NaCl (pH 7.5) (total volume of 10 μL) for 18 h at RT. The reaction mixture was analyzed by MALDI-TOF mass spectrometry employing a solution of 2,5-dihydroxybenzoic acid (DHB, 5 mg/mL in CH3CN:0.1% TFA, 30:70, containing 0.05% NaCl) as a matrix. The MALDI-TOF spectra were recorded on an Ultraflextreme III time-of-flight mass spectrometer equipped with a pulsed Nd:YAG laser (355 nm) and controlled by FlexControl 3.3 software (Bruker Daltonics, Bremen, Germany). The m/z range was selected according to the mass of the sample and the acquired spectra were processed with FlexAnalysis 3.3 software (Bruker Daltonics, Bremen, Germany).

human FUT8 [4] = biological target: T1, human FUT8; assay: STD NMR of ligands with FUT8; format: binding; conditions: 20 μM FUT8, absence or presence of GDP (1 mM), 283 K
Procedure: All experiments were performed at a temperature of 283 K using a Bruker AVANCE-III 800 MHz spectrometer with a 5 mm TXI triple resonance probe with z axis pulse field gradients (5 mm PATXI 1H-13C/15N/D Z-GRD). The ligands, M3N2, the M3N2-peptide, the G0-peptide, and the naked peptide, had their labile protons exchanged with deuterium by dissolving in D2O, freeze-drying for three times, and finally dissolving at 5 mM in D2O. M3N2-peptide, G0-peptide, and naked peptide ^1H-NMR and ^13C-NMR signals were assigned using ^1H-^13C HSQC (hsqcedetgp), ^1H-^13C HSQC-TOCSY (hsqcgpmlph), TOCSY (mlevph), COSY (cosygmpfqf), and HMBC (hmbcgplpndqf). 2D-NOESY experiments were carried out for M3N2 and the M3N2-peptide using the Bruker pulse program noesygpph with mixing times (d8) of 100, 150, 200, 250, 300, 400, 600, 800, 1000, and 1500 ms. The relaxation time was set to 1 s. Fourier transform was applied to both dimensions and the corresponding horizontal traces were extracted for H1B (4.47 ppm) and H5A (3.42 ppm) in the case of the M3N2-peptide. […] Average H1A-H5A and H1B-H5B distances were calculated from the 1 μs MD simulation and used for the calculation according to the equation in Figure S9c.
STD NMR spectra were measured for the corresponding N-glycans in the presence of 20 μM FUT8 both with and without GDP (1 mM) using the Bruker pulse program stddiff.3. […]

CHO^KO:mgat1 = assay: Site-specific N-glycan analysis of recombinant glycoproteins produced in CHO^KO:mgat1; format: cell-based; conditions: for Man5-GlcNAc2-Fuc/total / Man5-GlcNAc2/total: total = sum of top five glycopeptide intensities by LC–MS
[5] = biological target: human FUT8 (α-1,6-fucosyltransferase) (human) (UniProt Q9BYC5); assay: ITC; Auto-iTC200, 25 °C; FUT8 70 μM, ligand 400 μM to 1 mM; 25 mM Tris pH 7.5, 150 mM NaCl, 1 mM GDP (excess GDP); one-site model; duplicate
[6] = excess GDP (1 mM), 25 °C, pH 7.5
[7] = GDP titrated into FUT8, 25 °C, pH 7.5
[8] = 100 nM FUT8, 37 °C, 30 min, acceptors with 200 μM GDP-fucose, GDP-Fuc with saturating G0 (500 μM)

Molecule: Nc1nc2c(ncn2[C@@H]2O[C@H](COP(=O)(O)OP(=O)(O)O)[C@@H](O)[C@H]2O)c(=O)[nH]1 [GDP, reference compound]
Kd (human FUT8 [1]; [7]): 6.11 µM and 6.1 µM
n (stoichiometry of binding) (human FUT8 [1]; [7]): 0.60
ΔG (human FUT8 [1]; [7]): –7.09 ± 1.65 kcal/mol
ΔH (human FUT8 [1]; [7]): –5.02 ± 0.4 kcal/mol
–TΔS (human FUT8 [1]; [7]): –2.07 ± 0.48 kcal/mol

Molecule: CC(=O)N[C@@H]1[C@@H](O)[C@H](O[C@@H]2O[C@H](CO)[C@@H](O[C@@H]3O[C@H](CO[C@H]4O[C@H](CO)[C@@H](O)[C@H](O)[C@@H]4O)[C@@H](O)[C@H](O[C@H]4O[C@H](CO)[C@@H](O)[C@H](O)[C@@H]4O)[C@@H]3O)[C@H](O)[C@H]2NC(C)=O)[C@@H](CO)O[C@H]1NC(=O)C[C@H](NC(=O)[C@H](C)NC(=O)[C@@H](NC(=O)[C@@H](N)CCCCN)C(C)C)C(=O)N[C@@H](CCCCN)C(=O)N[C@H](C(=O)O)[C@@H](C)O [M3N2-peptide, Man3GlcNAc2 N-glycopeptide]
Kd (human FUT8 [1]; [6]): 406 ± 159 µM

Molecule: CC(=O)N[C@@H]1[C@@H](O)[C@H](O[C@@H]2O[C@H](CO)[C@@H](O[C@@H]3O[C@H](CO[C@H]4O[C@H](CO[C@H]5O[C@H](CO)[C@@H](O)[C@H](O)[C@@H]5O)[C@@H](O)[C@H](O[C@H]5O[C@H](CO)[C@@H](O)[C@H](O)[C@@H]5O)[C@@H]4O)[C@@H](O)[C@H](O[C@H]4O[C@H](CO)[C@@H](O)[C@H](O)[C@@H]4O)[C@@H]3O)[C@H](O)[C@H]2NC(C)=O)[C@@H](CO)O[C@H]1NC(=O)C[C@H](N)C(=O)O [M5N2-Asn, Man5GlcNAc2-Asn]
Initial velocity, fold worse than that of G0 and the G0-peptide (human FUT8 [2]; 1 mM acceptor substrate): ~14 fold
Binding to FUT8 by ITC (human FUT8 [1]; excess GDP (1 mM)): could not observe a binding titration profile

Molecule: EPO: recombinant erythropoietin expressed in CHO cells
Man5-GlcNAc2-Fuc/total (CHO^KO:mgat1; EPO N-glycosite N51): 0.48
Man5-GlcNAc2/total (CHO^KO:mgat1; EPO N-glycosite N51): 0.52
Man5-GlcNAc2-Fuc/total (CHO^KO:mgat1; EPO N-glycosite N65): 0.90
Man5-GlcNAc2/total (CHO^KO:mgat1; EPO N-glycosite N65): 0.10
Man5-GlcNAc2-Fuc/total (CHO^KO:mgat1; EPO N-glycosite N110): 0.67
Man5-GlcNAc2/total (CHO^KO:mgat1; EPO N-glycosite N110): 0.33
Core fucosylation of high-mannose N-glycan in KO mgat1 (CHO^KO:mgat1; N65 glycosite): almost exclusively core-fucosylated
Core fucosylation of high-mannose N-glycans in KO mgat1 (CHO^KO:mgat1; all glycosites): acquired core Fuc to some degree

Molecule: M3N2-peptide (Man3GlcNAc2 N-glycopeptide, KVANKT)
dH [5]: 7.7 kcal/mol
stoichiometry N [5]: 1.6

Second part, the molecule after the results:

Kd (human FUT8 [1]; [6]): 10 ± 4 µM
Molecule: CC(=O)N[C@@H]1[C@@H](O)[C@H](O[C@@H]2O[C@H](CO)[C@@H](O[C@@H]3O[C@H](CO[C@H]4O[C@H](CO)[C@@H](O)[C@H](O)[C@@H]4O[C@@H]4O[C@H](CO)[C@@H](O)[C@H](O)[C@H]4NC(C)=O)[C@@H](O)[C@H](O[C@H]4O[C@H](CO)[C@@H](O)[C@H](O)[C@@H]4O[C@@H]4O[C@H](CO)[C@@H](O)[C@H](O)[C@H]4NC(C)=O)[C@@H]3O)[C@H](O)[C@H]2NC(C)=O)[C@@H](CO)O[C@H]1NC(=O)C[C@H](NC(=O)[C@H](C)NC(=O)[C@@H](NC(=O)[C@@H](N)CCCCN)C(C)C)C(=O)N[C@@H](CCCCN)C(=O)N[C@H](C(=O)O)[C@@H](C)O [G0-peptide]

Km (human FUT8 [2]; [8]): 14.6 ± 3.4 µM
Vmax (human FUT8 [2]; [8]): 244.3 ± 13.1 nmol·min^–1·mg^–1
kcat (human FUT8 [2]; [8]): 14.17 ± 0.76 min^–1
Catalytic efficiency of the transfer reaction relative to G0 (human FUT8 [2]; GDP-Fuc more efficient than G0): ~10 fold
Molecule: C[C@@H]1O[C@H](OP(=O)(O)OP(=O)(O)OC[C@H]2O[C@@H](n3cnc4c(=O)[nH]c(N)nc43)[C@H](O)[C@@H]2O)[C@@H](O)[C@H](O)[C@@H]1O [GDP-Fuc, GDP-β-L-fucose]

FUT8 activity against acceptor substrate (human FUT8 [2]; acceptor 5 μM to 1 mM): inactive
Binding to FUT8 by ITC (human FUT8 [1]; excess GDP (1 mM)): could not determine a Kd
Core fucosylation by FUT8, qualitative (MALDI-TOF MS) (human FUT8 [3]): very poorly glycosylated
STD NMR interaction with FUT8 (human FUT8 [4]): no STD NMR signals were observed
Molecule: CC(=O)N[C@H]1[C@H](O[C@H]2[C@H](O)[C@@H](NC(C)=O)C(O)O[C@@H]2CO)O[C@H](CO)[C@@H](O[C@@H]2O[C@H](CO[C@H]3O[C@H](CO)[C@@H](O)[C@H](O)[C@@H]3O)[C@@H](O)[C@H](O[C@H]3O[C@H](CO)[C@@H](O)[C@H](O)[C@@H]3O)[C@@H]2O)[C@@H]1O (some centres unmarked) [M3N2, Man3GlcNAc2 N-glycan oligosaccharide]

dH [5]: -3.2 kcal/mol
stoichiometry N [5]: 0.84
Molecule: G0-peptide (KVANKT carrying the biantennary complex N-glycan G0 on Asn4)
